Data: patent publication US6218431A, “Substituted biphenyls” (Bayer Corporation, priority 1997, dated 2001)

These molecules were tested against T1, glucagon receptor (Homo sapiens, UniProt P47871) (assay: glucagon receptor binding assay (125I-glucagon, CHO-HGR membranes)). Settings: 20 μM; reported where 20 μM did not reduce glucagon binding by 50%.
T1 construct: expressed in transfected cells; host or cells: Chinese Hamster Ovary cells (CHO-HGR), membranes
Procedure, shortened: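 Membranes from CHO cells expressing glucagon receptor (10 ug protein) in Tris pH 7.4 buffer with EDTA, BSA and bacitracin, incubated with test compound and 125I-glucagon (9 fmol) 60 min at room temperature. Bound radioactivity counted after filtration; nonspecific binding defined with 1 μM native glucagon; 0.5% DMSO.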

T1 sequence (P47871 26-477): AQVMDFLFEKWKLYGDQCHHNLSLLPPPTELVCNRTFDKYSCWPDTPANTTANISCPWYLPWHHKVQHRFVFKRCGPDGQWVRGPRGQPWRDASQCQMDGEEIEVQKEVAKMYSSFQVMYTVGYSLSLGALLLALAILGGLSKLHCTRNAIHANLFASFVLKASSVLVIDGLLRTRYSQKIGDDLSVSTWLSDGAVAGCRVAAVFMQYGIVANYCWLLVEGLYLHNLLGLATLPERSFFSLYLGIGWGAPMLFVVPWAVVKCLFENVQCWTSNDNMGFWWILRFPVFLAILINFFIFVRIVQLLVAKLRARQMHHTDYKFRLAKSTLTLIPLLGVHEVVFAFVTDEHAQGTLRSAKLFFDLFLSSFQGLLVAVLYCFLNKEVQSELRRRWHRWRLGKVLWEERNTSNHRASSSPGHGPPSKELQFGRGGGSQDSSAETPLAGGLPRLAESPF

Going from `CCCC=Cc1c(C(C)C)nc(C(C)C)c(CO)c1-c1cccc(F)c1` [Example 127, 2,6-Diisopropyl-3-hydroxymethyl-4-(3-fluorophenyl)-5-(pent-1-enyl)-pyridine] to `CCCCC(OC)c1c(C(C)C)nc(C(C)C)c(CO)c1-c1ccc(F)cc1` (racemic) [Example 100, (±)-2,6-Diisopropyl-3-hydroxymethyl-4-(4-fluorophenyl)-5-(1-methoxy-pentyl)pyridine], the inhibition at 20 µM falls from 45.5% to 39.6%.

Going from `CC(C)c1nc(C(C)C)c(CCCCO)c(-c2ccc(F)cc2)c1CO` [Example 88, 2,6-Diisopropyl-3-hydroxymethyl-4-(4-fluorophenyl)-5-(4-hydroxy-butyl)pyridine] to `CCCCCc1c(C(C)C)nc(C(C)C)c(CCO)c1-c1ccc(F)cc1` [Example 119, 2,6-Diisopropyl-3-(2-hydroxyethyl)-4-(4fluorophenyl)-5-pentylpyridine], the inhibition at 20 µM rises from 24.8% to 30.2%.

Compared with `CCCCCc1c(COC)nc(C(C)C)c(CO)c1-c1ccc(F)cc1` [Example 201, 2-Methoxymethyl-3-pentyl-4-(4-fluorophenyl)-5-hydroxymethyl-6-isopropylpyridine], `CCc1nc(CC)c(CO)c(-c2ccccc2)c1CC` [Example 9] is lower in inhibition at 20 µM: 46.7% for the first, 16.6% for the second.

With `CCCCCc1c(C(C)C)nc(C(C)C)c(CO)c1-c1cccc(OC)c1` [Example 171, 2,6-Diisopropyl-3-hydroxymethyl-4-(3-methoxyphenyl)-5-pentylpyridine] the “% Inhibition (20 μM)” value was 48.37%.

Same assay, conditions: 125I-glucagon; 60 min at room temperature; read-out: IC50

Compared with `CCCCCc1c(CC(C)C)nc(C(C)C)c(CO)c1-c1ccc(F)cc1` [Example 228, 2-Isopropyl-3-hydroxymethyl-4-(4-fluorophenyl)-5-pentyl-6-(2-methylpropyl)pyridine], `CCCCc1c(C(C)C)nc(C(C)C)c(CO)c1-c1ccc(F)cc1` [Example 24, 2,6-Diisopropyl-3-hydroxymethal-4-(4fluorophenyl)-5-butylpyridine] is 2.7-fold lower in IC50: 2 µM for the first, 0.75 µM for the second. The second is the more potent here.

`CC(C)c1nc(C(C)C)c(CSc2cccc(C(F)(F)F)c2)c(-c2ccc(F)cc2)c1CO` [Example 48, 2,6-Diisopropyl-3-hydroxymethyl-4-(4-fluorophenyl)-5-[((3-trifluoro-methyl)phenyl)thio]methylpyridine] and `Cc1cccc(CCCc2c(C(C)C)nc(C(C)C)c(CO)c2-c2ccc(F)cc2)c1` [Example 85, 2,6-Diisopropyl-3-hydroxymethyl-4-(4-fluorophenyl)-5-[3-(3-methyl-5-phenyl)propyl]pyridine] are within 1.5-fold of each other in IC50: 1.8 µM for the first, 1.5 µM for the second.

Compared with `CC(C)c1nc2c(c(-c3ccc(F)cc3)c1C(C)O)CCCC2(C)C` (centres unmarked) [Example 231, 2-Isopropyl-3-(1-hydroxyethyl)-4-(4-fluorophenyl)-5,6,7,8-tetrahydro-8,8-dimethylquinoline], `CC(C)c1nc2c(c(-c3ccc(F)cc3)c1CO)CCCC2(C)C` [Example 230, 2-Isopropyl-3-hydroxymethyl-4-(4-fluorophenyl)-5,6,7,8-tetrahydro-8,8-dimethylquinoline] is 1.8-fold higher in IC50: 0.5 µM for the first, 0.9 µM for the second.

First: CC(C)c1nc(C(C)C)c(CO)c(-c2ccc(F)cc2)c1C=CCCc1ccccc1 [Example 38, 2,6-Diisopropyl-3-hydroxymethyl-4-(4-fluorophenyl)-5-(4phenyl-1-butenyl)pyridine]
Second: CC(C)c1nc(C(C)C)c(CO)c(-c2ccc(F)cc2)c1C=C1CCCC1 [Example 31, 2,6-Diisopropyl-3-hydroxymethyl-4-(4-flurorphenyl)-5-(cyclopentyl-idenemethylene)pyridine]
The IC50 of the first is 4.3-fold lower: 0.6 µM for the first, 2.6 µM for the second. The first is the more potent here.

Compared with `CCCc1c(C(C)C)cc(C(C)C)c(C(C)O)c1-c1ccc(F)cc1` (single isomer, unassigned; (+)) [Example 245, (+)-3,5-Diisopropyl-2-(1-hydroxyethyl)-6-propyl-4'-fluoro-1,1'-biphenyl], `CCCCCc1c(C(C)=O)nc(C(C)C)c(CO)c1-c1ccc(F)cc1` [Example 218, 2-Acetyl-3-pentyl-4-(4-fluorophenyl)-5-hydroxymethyl-6-isopropylpyridine] is 22-fold higher in IC50: 0.3 µM for the first, 6.5 µM for the second.
